Laboratory results as given in article PMC5727165, “A switch in nucleotide affinity governs activation of the Src and Tec family kinases” (Scientific Reports, 2017).
Where two headings read alike, the source gives them in different places.

Molecular target: T1, Itk^32K L351A (Homo sapiens, UniProt Q08881, L351A)
T1 construct: Human Itk^171–620 (Itk^32K); GST (cleaved yes); made in house; host or cells: baculovirus-infected Sf9 insect cells
T1 sequence (Q08881 171-620 L351A): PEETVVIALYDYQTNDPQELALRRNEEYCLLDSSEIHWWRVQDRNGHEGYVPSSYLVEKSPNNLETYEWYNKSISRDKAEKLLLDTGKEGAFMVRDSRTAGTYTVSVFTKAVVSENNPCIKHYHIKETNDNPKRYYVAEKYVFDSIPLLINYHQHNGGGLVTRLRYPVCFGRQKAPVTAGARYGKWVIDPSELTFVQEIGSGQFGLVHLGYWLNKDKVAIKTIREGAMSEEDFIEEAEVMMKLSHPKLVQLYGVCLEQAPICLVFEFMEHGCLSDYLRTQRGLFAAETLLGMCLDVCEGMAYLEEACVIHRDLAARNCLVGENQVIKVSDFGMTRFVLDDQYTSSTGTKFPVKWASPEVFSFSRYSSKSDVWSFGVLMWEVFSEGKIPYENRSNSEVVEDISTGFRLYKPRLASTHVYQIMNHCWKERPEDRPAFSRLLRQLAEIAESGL
Assay: Fluorescence anisotropy binding of Mant-labelled nucleotides
Text: Figure 3 An allosteric switch triggers nucleotide exchange. (a) Hydrophobic stack conservation in Src family kinases. The table illustrates the amino acid identity at each of the three positions in the hydrophobic stack in addition to the invariant tryptophan (Trp260 in Src) for all Src family kinase members. The positions are presented according to their N- to C-terminal order in the primary sequences. Where it was not possible to unambiguously determine the identity of the amino acid contributed by the SH2-kinase variable linker (V3), the residue is denoted by a question mark. (b) Small angle X-ray scattering of Itk^32K L351A (black). The scattering curve for wild type Itk^32K (cyan) is overlaid for comparison. […] (c) Rigid body modelling of Itk^32K L351A and fit to ab initio molecular envelope. Displacement of both the SH3 and SH2 domains is required for a good fit to the experimental scattering curve. (d) Determination of the binding constants of Itk^32K L351A for nucleotides by fluorescence anisotropy. […] (e) Determination of the thermal stabilities and relative binding affinities of non-phosphorylated Src^32KΔC L255A for nucleotides by differential scanning fluorimetry. […] TEXT PRINTED IN THE PICTURE: (d) Mant-ADP: Itk^32K L351A (non-phos) Kd (μM): 21.0 ± 2.1 | (d) Mant-ATP: Itk^32K L351A (non-phos) Kd (μM): 31.7 ± 2.7 | (e) ADP: Src^32KΔC L255A (non-phos) [nuc]1/2 (μM): 310 ± 20; Src^32KΔC L255A (non-phos) Tm^max (°C): 52.9; Src^32KΔC L255A (non-phos) ΔTm^max (°C): + 6.8 | (e) ATP: Src^32KΔC L255A (non-phos) [nuc]1/2 (μM): 100 ± 10; Src^32KΔC L255A (non-phos) Tm^max (°C): 54.2; Src^32KΔC L255A (non-phos) ΔTm^max (°C): + 8.1 | (e) apo: Src^32KΔC L255A (non-phos) Tm^max (°C): 46.1
To establish whether hydrophobic stack disassembly triggers a switch in nucleotide binding of the kinase domain, we measured the binding of both unphosphorylated and activation loop phosphorylated (pY511) Itk^32K L351A to ADP and ATP.
The binding constants for ADP and AMPPNP were determined for Src and Itk proteins by fluorescence anisotropy, using 2′/3′-Mant-labelled nucleotides (Jena Bioscience). Increasing concentrations of Itk^32K, Itk^L351A or Src^32K were incubated with 40 μM Mant-nucleotide in 30 mM Tris pH 7.5, 200 mM NaCl, 5 mM MgCl2, and 1 mM TCEP. Measurements were made with a Perkin Elmer LS50B fluorimeter (λex = 355 nm, λem = 447 nm) at 20 °C. For each data point 50–60 measurements, each with an integration time of 1 s, were averaged. For competition nucleotide displacement assays, 40–80 μM of protein was incubated with 40 μM Mant-ADP until equilibrium was established. Unlabelled nucleotide was titrated into the reaction and fluorescence anisotropy monitored. The equilibrium inhibition constant for the unlabelled nucleotide was calculated from the fitted curve.

Kd (Itk^32K L351A non-phosphorylated, read-out: Kd): 21 µM | Kd (activation loop-phosphorylated (pTyr511) Itk^32K L351A, read-out: Kd (binding constant)): 30 µM
SMILES: Nc1ncnc2c1ncn2[C@@H]1O[C@H](COP(=O)(O)OP(=O)(O)O)[C@@H](O)[C@H]1O [ADP]
